# Reference: PMC5218480 (PLoS ONE, 2017)
# Tested on: MV-4-11 cells
# Experiment: Gene expression microarray analysis (Affymetrix PrimeView) and GSEA
# Assay type: cell-based, human
# Parameters: RFU PODN (11730768_x_at) / Fold change /veh PODN (11730768_x_at) / RFU LINC00158 (11744669_a_at) / Fold change /veh LINC00158 (11744669_a_at) / RFU DUSP10 (11751237_a_at) / Fold change /veh DUSP10 (11751237_a_at) / RFU ID3 (11757404_x_at) / Fold change /veh ID3 (11757404_x_at) / RFU PLEKHG5 (11737974_s_at) / Fold change /veh PLEKHG5 (11737974_s_at) / RFU LRRC4B (11730491_at) / Fold change /veh LRRC4B (11730491_at) / RFU GIMAP4 (11747438_a_at) / Fold change /veh GIMAP4 (11747438_a_at) / RFU KRT8 (11758183_x_at) / Fold change /veh KRT8 (11758183_x_at) / RFU CNN1 (11734310_a_at) / Fold change /veh CNN1 (11734310_a_at) / RFU VPS37D (11726825_at) / Fold change /veh VPS37D (11726825_at) / RFU C10orf10 (11716522_x_at) / Fold change /veh C10orf10 (11716522_x_at) / RFU KIR2DL2 /// KIR2DL4 /// KIR2DL5A /// KIR2DL5B /// KIR2DS1 /// KIR2DS2 /// KIR2DS3 /// KIR2DS4 /// KIR3DL3 /// KIR3DL3 /// KIR3DS1 (11738374_at) / Fold change /veh KIR2DL2 /// KIR2DL4 /// KIR2DL5A /// KIR2DL5B /// KIR2DS1 /// KIR2DS2 /// KIR2DS3 /// KIR2DS4 /// KIR3DL3 /// KIR3DL3 /// KIR3DS1 (11738374_at) / RFU C1QL1 (11718748_at) / Fold change /veh C1QL1 (11718748_at) / RFU TMPRSS4 (11747572_a_at) / Fold change /veh TMPRSS4 (11747572_a_at) / RFU HAMP (11756126_x_at) / Fold change /veh HAMP (11756126_x_at) / RFU RNFT2 (11725882_a_at) / Fold change /veh RNFT2 (11725882_a_at) / RFU NR4A2 (11747474_a_at) / Fold change /veh NR4A2 (11747474_a_at) / RFU ABCC12 (11746883_a_at) / Fold change /veh ABCC12 (11746883_a_at) / RFU TMEM136 (11760407_x_at) / Fold change /veh TMEM136 (11760407_x_at) / RFU CLDN22 /// WWC2 (11732394_at) / Fold change /veh CLDN22 /// WWC2 (11732394_at) / RFU HLA-DPB1 (11760878_x_at) / Fold change /veh HLA-DPB1 (11760878_x_at) / RFU SPINT1 (11716480_a_at) / Fold change /veh SPINT1 (11716480_a_at) / RFU GAP43 (11754022_s_at) / Fold change /veh GAP43 (11754022_s_at) / RFU A4GNT (11735810_at) / Fold change /veh A4GNT (11735810_at) / RFU PRB3 (11715151_x_at) / Fold change /veh PRB3 (11715151_x_at) / RFU TUBB4B (11761932_at) / Fold change /veh TUBB4B (11761932_at) / RFU CAPN14 (11732068_a_at) / Fold change /veh CAPN14 (11732068_a_at) / RFU TMCC2 (11721928_a_at) / Fold change /veh TMCC2 (11721928_a_at) / RFU IRGQ (11745062_a_at) / Fold change /veh IRGQ (11745062_a_at) / RFU FAM174B (11720279_a_at) / Fold change /veh FAM174B (11720279_a_at) / RFU TMPRSS4 (11748680_a_at) / Fold change /veh TMPRSS4 (11748680_a_at) / RFU FAM212B (11763350_a_at) / Fold change /veh FAM212B (11763350_a_at) / RFU PLEKHG5 (11743358_a_at) / Fold change /veh PLEKHG5 (11743358_a_at) / RFU ZSCAN30 (11745921_a_at) / Fold change /veh ZSCAN30 (11745921_a_at) / RFU CMKLR1 (11741424_a_at) / Fold change /veh CMKLR1 (11741424_a_at) / RFU LOC101060620 /// MAPK8IP1 (11723275_at) / Fold change /veh LOC101060620 /// MAPK8IP1 (11723275_at) / RFU SPTSSB (11747773_x_at) / Fold change /veh SPTSSB (11747773_x_at) / RFU PRSS12 (11739890_at) / Fold change /veh PRSS12 (11739890_at) / RFU BIN1 (11741810_x_at) / Fold change /veh BIN1 (11741810_x_at) / RFU WNT11 (11732464_a_at) / Fold change /veh WNT11 (11732464_a_at) / RFU C10orf10 (11716521_a_at) / Fold change /veh C10orf10 (11716521_a_at) / RFU C5orf56 (11738089_at) / Fold change /veh C5orf56 (11738089_at) / RFU CYB561 (11721691_x_at) / Fold change /veh CYB561 (11721691_x_at) / RFU ANKRD19P (11752326_a_at) / Fold change /veh ANKRD19P (11752326_a_at) / RFU OR2T12 /// OR2T33 /// OR2T8 (11738714_s_at) / Fold change /veh OR2T12 /// OR2T33 /// OR2T8 (11738714_s_at) / RFU VCAN (11748164_a_at) / Fold change /veh VCAN (11748164_a_at) / RFU JSRP1 (11732532_at) / Fold change /veh JSRP1 (11732532_at) / RFU KRTAP10-11 (11738290_x_at) / Fold change /veh KRTAP10-11 (11738290_x_at) / RFU MYO3A (11730013_a_at) / Fold change /veh MYO3A (11730013_a_at) / RFU EBF3 (11725865_a_at) / Fold change /veh EBF3 (11725865_a_at) / RFU CAMK2N1 (11719241_x_at) / Fold change /veh CAMK2N1 (11719241_x_at) / RFU C5orf56 (11738088_a_at) / Fold change /veh C5orf56 (11738088_a_at) / RFU OLFML3 (11715873_a_at) / Fold change /veh OLFML3 (11715873_a_at) / RFU LOC100653217 /// NTM (11731650_a_at) / Fold change /veh LOC100653217 /// NTM (11731650_a_at) / RFU MAPK11 (11762145_a_at) / Fold change /veh MAPK11 (11762145_a_at) / RFU FIZ1 (11724087_x_at) / Fold change /veh FIZ1 (11724087_x_at) / RFU OASL (11726364_x_at) / Fold change /veh OASL (11726364_x_at) / RFU SOX15 (11748057_x_at) / Fold change /veh SOX15 (11748057_x_at) / RFU CD79A (11719716_a_at) / Fold change /veh CD79A (11719716_a_at) / RFU HIST1H1D (11736915_at) / Fold change /veh HIST1H1D (11736915_at) / RFU CASKIN2 (11723855_a_at) / Fold change /veh CASKIN2 (11723855_a_at) / RFU LOC730098 (11760151_x_at) / Fold change /veh LOC730098 (11760151_x_at) / RFU OR4N2 (11742367_at) / Fold change /veh OR4N2 (11742367_at) / RFU PRRT2 (11749266_a_at) / Fold change /veh PRRT2 (11749266_a_at) / RFU SNX32 (11753110_a_at) / Fold change /veh SNX32 (11753110_a_at) / RFU CDHR5 (11726645_a_at) / Fold change /veh CDHR5 (11726645_a_at) / RFU RCAN1 (11760418_a_at) / Fold change /veh RCAN1 (11760418_a_at) / RFU FAM167A (11723789_a_at) / Fold change /veh FAM167A (11723789_a_at) / RFU FAM26E (11764081_at) / Fold change /veh FAM26E (11764081_at) / RFU ISYNA1 (11749810_s_at) / Fold change /veh ISYNA1 (11749810_s_at) / RFU ACY1 (11761880_at) / Fold change /veh ACY1 (11761880_at) / RFU 11764098_at / Fold change /veh 11764098_at / RFU SAMD14 (11745864_x_at) / Fold change /veh SAMD14 (11745864_x_at) / RFU NPB (11741838_a_at) / Fold change /veh NPB (11741838_a_at) / RFU TMPRSS6 (11731388_a_at) / Fold change /veh TMPRSS6 (11731388_a_at) / RFU KRTAP10-2 (11738614_at) / Fold change /veh KRTAP10-2 (11738614_at) / RFU ARHGAP8 /// PRR5-ARHGAP8 (11727945_x_at) / Fold change /veh ARHGAP8 /// PRR5-ARHGAP8 (11727945_x_at) / RFU KRTAP5-7 /// NADSYN1 (11734609_at) / Fold change /veh KRTAP5-7 /// NADSYN1 (11734609_at) / RFU RASL12 (11751679_a_at) / Fold change /veh RASL12 (11751679_a_at) / RFU CDKN2B (11736163_a_at) / Fold change /veh CDKN2B (11736163_a_at) / RFU PRF1 (11729649_at) / Fold change /veh PRF1 (11729649_at) / RFU, ZNF638 /// ZNF638-IT1 / Fold change vs veh, ZNF638 /// ZNF638-IT1 / RFU, PANK3 / Fold change vs veh, PANK3 / RFU, SH3YL1 / Fold change vs veh, SH3YL1 / RFU, ZEB2 / Fold change vs veh, ZEB2 / RFU, NRIP1 / Fold change vs veh, NRIP1 / RFU, PTTG1IP / Fold change vs veh, PTTG1IP / RFU, CAPN2 / Fold change vs veh, CAPN2 / RFU, MED14 / Fold change vs veh, MED14 / RFU, SNORA58 / Fold change vs veh, SNORA58 / RFU, C1orf63 / Fold change vs veh, C1orf63 / RFU, LRRFIP1 / Fold change vs veh, LRRFIP1 / RFU, NDUFAF7 / Fold change vs veh, NDUFAF7 / RFU, SLC12A2 / Fold change vs veh, SLC12A2 / RFU, IBTK / Fold change vs veh, IBTK / RFU, ESF1 / Fold change vs veh, ESF1 / Fold change vs veh, TMEM50B / RFU, TAOK1 / Fold change vs veh, TAOK1 / RFU, ACBD3 / Fold change vs veh, ACBD3 / RFU, TMA16 / Fold change vs veh, TMA16 / RFU, RWDD3 / Fold change vs veh, RWDD3 / RFU, BCAT1 / Fold change vs veh, BCAT1 / RFU, EDEM3 / Fold change vs veh, EDEM3 / RFU, TMEM33 / Fold change vs veh, TMEM33 / RFU, WDR75 / Fold change vs veh, WDR75 / RFU, AHCTF1 / Fold change vs veh, AHCTF1 / RFU, TFRC / Fold change vs veh, TFRC / RFU, ZDHHC17 / Fold change vs veh, ZDHHC17 / RFU, NOM1 / Fold change vs veh, NOM1 / RFU, ARL8B / Fold change vs veh, ARL8B / RFU, ZBTB11 / Fold change vs veh, ZBTB11 / RFU, TAMM41 / Fold change vs veh, TAMM41 / RFU, KIAA1704 /// LOC100996395 / Fold change vs veh, KIAA1704 /// LOC100996395 / RFU, ING1 / Fold change vs veh, ING1 / RFU, TRMT61B / Fold change vs veh, TRMT61B / RFU, FUBP3 / Fold change vs veh, FUBP3 / RFU, TP53 / Fold change vs veh, TP53 / RFU, TNKS2 / Fold change vs veh, TNKS2 / RFU, ZFP14 / Fold change vs veh, ZFP14 / RFU, ACTR2 / Fold change vs veh, ACTR2 / RFU, PPP3R1 / Fold change vs veh, PPP3R1 / RFU, PIK3R1 / Fold change vs veh, PIK3R1 / RFU, HNRNPA1 / Fold change vs veh, HNRNPA1 / RFU, RNF170 / Fold change vs veh, RNF170 / RFU, ZNF28 / Fold change vs veh, ZNF28 / RFU, RNGTT / Fold change vs veh, RNGTT / RFU, OGT / Fold change vs veh, OGT / RFU, BRD1 / Fold change vs veh, BRD1 / RFU, MARS / Fold change vs veh, MARS / RFU, ZNF655 / Fold change vs veh, ZNF655 / RFU, FAHD1 / Fold change vs veh, FAHD1 / RFU, BDP1 / Fold change vs veh, BDP1 / RFU, LRRCC1 / Fold change vs veh, LRRCC1 / RFU, ARID1A / Fold change vs veh, ARID1A / RFU, ZNF146 / Fold change vs veh, ZNF146 / RFU, ZNF330 / Fold change vs veh, ZNF330 / RFU, GPN3 / Fold change vs veh, GPN3 / RFU, C9orf123 / Fold change vs veh, C9orf123 / RFU, N4BP2L2 / Fold change vs veh, N4BP2L2 / RFU, ARFIP1 / Fold change vs veh, ARFIP1 / RFU, FAM179B / Fold change vs veh, FAM179B / RFU, BCL10 / Fold change vs veh, BCL10 / RFU, UHRF1BP1L / Fold change vs veh, UHRF1BP1L / RFU, BET1 / Fold change vs veh, BET1 / RFU, CNOT2 / Fold change vs veh, CNOT2 / RFU, ZNF268 / Fold change vs veh, ZNF268 / Fold change vs veh, ZNF507 / RFU, DGCR2 / Fold change vs veh, DGCR2 / RFU, WDSUB1 / Fold change vs veh, WDSUB1 / Fold change vs veh, HSP90B1 /// MIR3652 / RFU, ADSS / Fold change vs veh, ADSS / RFU, GK / Fold change vs veh, GK / RFU, ZNF148 / Fold change vs veh, ZNF148 / RFU, TAF9 / Fold change vs veh, TAF9 / RFU, SLC1A5 / Fold change vs veh, SLC1A5 / RFU, SLMO2 / Fold change vs veh, SLMO2 / RFU, ABCC4 / Fold change vs veh, ABCC4 / RFU, LOC101060439 /// RAP1B / Fold change vs veh, LOC101060439 /// RAP1B / RFU, RFX7 / Fold change vs veh, RFX7 / RFU, GTPBP10 / Fold change vs veh, GTPBP10 / RFU, CNEP1R1 / Fold change vs veh, CNEP1R1 / RFU, BIVM-ERCC5 /// ERCC5 / Fold change vs veh, BIVM-ERCC5 /// ERCC5 / RFU, ILF3 / Fold change vs veh, ILF3 / RFU 11762660_at / Fold change /veh 11762660_at / RFU VCAN (11757783_s_at) / Fold change /veh VCAN (11757783_s_at) / RFU DDX43 (11728927_at) / Fold change /veh DDX43 (11728927_at) / RFU KRT8 (11758188_x_at) / Fold change /veh KRT8 (11758188_x_at) / RFU NKD1 (11759106_at) / Fold change /veh NKD1 (11759106_at) / RFU SRD5A1 (11742802_a_at) / Fold change /veh SRD5A1 (11742802_a_at) / RFU TPSAB1 /// TPSB2 (11721975_s_at) / Fold change /veh TPSAB1 /// TPSB2 (11721975_s_at) / RFU GSTM3 (11746129_a_at) / Fold change /veh GSTM3 (11746129_a_at) / RFU IL23R (11737362_x_at) / Fold change /veh IL23R (11737362_x_at) / RFU TMEM51 (11727254_a_at) / Fold change /veh TMEM51 (11727254_a_at) / RFU PIWIL2 (11732686_x_at) / Fold change /veh PIWIL2 (11732686_x_at) / RFU ORM1 (11744905_x_at) / Fold change /veh ORM1 (11744905_x_at) / RFU CCDC152 (11743942_at) / Fold change /veh CCDC152 (11743942_at) / RFU ECM1 (11717891_a_at) / Fold change /veh ECM1 (11717891_a_at) / RFU IL23R (11748794_a_at) / Fold change /veh IL23R (11748794_a_at) / RFU TNFAIP8L3 (11732012_x_at) / Fold change /veh TNFAIP8L3 (11732012_x_at) / RFU MBOAT4 (11741988_at) / Fold change /veh MBOAT4 (11741988_at) / RFU 11764193_at / Fold change /veh 11764193_at / RFU TMEM53 (11763286_at) / Fold change /veh TMEM53 (11763286_at) / RFU MAGEB2 (11727129_at) / Fold change /veh MAGEB2 (11727129_at) / RFU TMEM200A (11744735_a_at) / Fold change /veh TMEM200A (11744735_a_at) / RFU CCDC152 (11751479_a_at) / Fold change /veh CCDC152 (11751479_a_at) / RFU FAM211A (11726209_a_at) / Fold change /veh FAM211A (11726209_a_at) / RFU RGS16 (11746705_a_at) / Fold change /veh RGS16 (11746705_a_at) / RFU VCAN (11755009_s_at) / Fold change /veh VCAN (11755009_s_at) / RFU RHOB (11743442_s_at) / Fold change /veh RHOB (11743442_s_at) / RFU RGS16 (11720943_a_at) / Fold change /veh RGS16 (11720943_a_at) / RFU RGS16 (11720944_at) / Fold change /veh RGS16 (11720944_at) / RFU, VPS4B / Fold change vs veh, VPS4B / RFU, CREB1 / Fold change vs veh, CREB1 / RFU, DNAJC13 / Fold change vs veh, DNAJC13 / RFU, GNAQ / Fold change vs veh, GNAQ / RFU, CDK5R1 / Fold change vs veh, CDK5R1 / RFU, ZRANB3 / Fold change vs veh, ZRANB3 / RFU, CUL4A / Fold change vs veh, CUL4A / RFU, CCNY / Fold change vs veh, CCNY / RFU, UFL1 / Fold change vs veh, UFL1 / RFU, COG3 / Fold change vs veh, COG3 / RFU, DIAPH2 / Fold change vs veh, DIAPH2 / RFU, SKA2 / Fold change vs veh, SKA2 / RFU, AFF3 / Fold change vs veh, AFF3 / RFU, LMF1 / Fold change vs veh, LMF1 / RFU, IPO11 / Fold change vs veh, IPO11 / RFU, DFFB / Fold change vs veh, DFFB / RFU, FOXP1 / Fold change vs veh, FOXP1 / RFU, CARD8 / Fold change vs veh, CARD8 / RFU, STRN3 / Fold change vs veh, STRN3 / RFU, ADK / Fold change vs veh, ADK / RFU, RASSF2 / Fold change vs veh, RASSF2 / RFU, WIPF1 / Fold change vs veh, WIPF1 / RFU, LARP1B / Fold change vs veh, LARP1B / RFU, RASA1 / Fold change vs veh, RASA1 / RFU, RB1 / Fold change vs veh, RB1 / RFU, PPFIA1 / Fold change vs veh, PPFIA1 / RFU, MAT2A / Fold change vs veh, MAT2A / RFU, CCT5 / Fold change vs veh, CCT5 / RFU, WDR92 / Fold change vs veh, WDR92 / RFU, CUX1 / Fold change vs veh, CUX1 / RFU, TTC7A / Fold change vs veh, TTC7A / RFU, TMEM135 / Fold change vs veh, TMEM135 / RFU, DEPTOR / Fold change vs veh, DEPTOR / RFU, CPM / Fold change vs veh, CPM / RFU, DNAJB6 / Fold change vs veh, DNAJB6 / RFU, CACNA2D3 / Fold change vs veh, CACNA2D3 / RFU, DTX4 / Fold change vs veh, DTX4 / RFU, TFCP2 / Fold change vs veh, TFCP2 / RFU, GMCL1 /// GMCL1P1 / Fold change vs veh, GMCL1 /// GMCL1P1 / RFU, AEBP2 / Fold change vs veh, AEBP2 / RFU, SNHG1 /// SNORD22 /// SNORD25 /// SNORD26 /// SNORD27 /// SNORD28 /// SNORD29 /// SNORD31 / Fold change vs veh, SNHG1 /// SNORD22 /// SNORD25 /// SNORD26 /// SNORD27 /// SNORD28 /// SNORD29 /// SNORD31 / Fold change (Aza/veh), C12orf56 (ProbeSet 11735607_a_at) / Fold change (ACY-1035/veh), C12orf56 (ProbeSet 11735607_a_at) / Fold change (Aza/veh), FGFR1OP (ProbeSet 11751329_s_at) / Fold change (ACY-1035/veh), FGFR1OP (ProbeSet 11751329_s_at) / Fold change (Aza/veh), VPS36 (ProbeSet 11739960_a_at) / Fold change (ACY-1035/veh), VPS36 (ProbeSet 11739960_a_at) / RFU SYPL1 (11715823_x_at) / Fold change /veh SYPL1 (11715823_x_at) / RFU IGFBP7 (11715501_s_at) / Fold change /veh IGFBP7 (11715501_s_at) / RFU REEP3 (11722064_at) / Fold change /veh REEP3 (11722064_at) / RFU IGLL1 (11728026_x_at) / Fold change /veh IGLL1 (11728026_x_at): dose or concentration left out as unconfirmed
# Conditions: ProbeSet 11729384_s_at; LIST D
smiles,measurement,value
Nc1ncn([C@@H]2O[C@H](CO)[C@@H](O)[C@H]2O)c(=O)n1 [azacitidine],"RFU, CCNY",167.26 RFU
